ChEMBL document CHEMBL5316331, “Modulating Cytotoxicity with Lego-like Chemistry: Upgrading Mitochondriotropic Antioxidants with Prototypical Cationic Carrier Bricks” (J Med Chem, 2023)
Active and inactive are the calls of the source. The rule behind the calls is not given here.

Columns and labels:
[1] = Cytotoxicity against human SH-SY5Y cells assessed as cell viability incubated for 24 hrs; format: toxicity, cell-based; details: read-out: Activity
[2] = Cytotoxicity against human HepG2 cells assessed as cell viability incubated for 24 hrs; format: toxicity, cell-based; details: read-out: Activity
SH-SY5Y [3] = assay: Cytotoxicity against human SH-SY5Y cells incubated for 48 hrs; format: toxicity, cell-based
SH-SY5Y [4] = assay: Cytotoxicity against human SH-SY5Y cells assessed as increase in cell viability at 10 to 100 uM incubated for 24 hrs; format: toxicity, cell-based; details: dose 10-100 µM
HepG2 = assay: Cytotoxicity against human HepG2 cells assessed as increase in cell viability at 10 to 100 uM incubated for 24 hrs; format: toxicity, cell-based; details: hepg2, 24 h, dose 10-100 µM
[5] = Dissociation constant, pKa of the compound by UV-vis spectrophotometric analysis; format: physicochemical
[6] = Drug uptake in C57BL/6J mouse liver mitochondria at 5 uM in presence of rotenone by UPLC analysis; format: ADME
[7] = Drug uptake in C57BL/6J mouse liver mitochondria at 5 uM in presence of succinate by UPLC analysis; format: ADME
[8] = Drug uptake in C57BL/6J mouse liver mitochondria at 5 uM in presence of FCCP by UPLC analysis; format: ADME
SH-SY5Y [9] = assay: Antioxidant activity against human SH-SY5Y cells assessed as increase in basal respiration at 10 uM incubated for 24 hrs followed by addition of oligomycin/FCCP/antimycin A /rotenone by Cell Mito stress assay based seahorse XF96 flux analyzer; format: functional
SH-SY5Y [10] = assay: Antioxidant activity against human SH-SY5Y cells assessed as increase in maximal respiration at 10 uM incubated for 24 hrs followed by addition of oligomycin/FCCP/antimycin A /rotenone by Cell Mito stress assay based seahorse XF96 flux analyzer; format: functional
SH-SY5Y [11] = assay: Antioxidant activity against human SH-SY5Y cells assessed as increase in ATP production-linked respiration at 10 uM incubated for 24 hrs followed by addition of oligomycin/FCCP/antimycin A /rotenone by Cell Mito stress assay based seahorse XF96 flux analyzer; format: functional
SH-SY5Y [12] = assay: Antioxidant activity against human SH-SY5Y cells assessed as increase in spare respiratory capacity at 10 uM incubated for 24 hrs followed by addition of oligomycin/FCCP/antimycin A /rotenone by Cell Mito stress assay based seahorse XF96 flux analyzer; format: functional
SH-SY5Y [13] = assay: Antioxidant activity against human SH-SY5Y cells assessed as increase in basal ECAR at 10 uM incubated for 24 hrs followed by addition of oligomycin/FCCP/antimycin A /rotenone by Cell Mito stress assay based seahorse XF96 flux analyzer; format: functional
SH-SY5Y [14] = assay: Antioxidant activity against human SH-SY5Y cells assessed as increase in basal OCR at 10 uM incubated for 24 hrs followed by addition of oligomycin/FCCP/antimycin A /rotenone by Cell Mito stress assay based seahorse XF96 flux analyzer; format: functional
SH-SY5Y [15] = assay: Induction of mitochondrial membrane polarization in human SH-SY5Y cells at 10 uM incubated for 24 hrs by JC-1 staining based fluorescence assay; format: functional
SH-SY5Y [16] = assay: Induction of mitochondrial membrane polarization in human SH-SY5Y cells at 50 uM incubated for 24 hrs by JC-1 staining based fluorescence assay; format: functional
SH-SY5Y [17] = assay: Effect on cell mitochondrial mass in human SH-SY5Y cells assessed as reduction on mitochondrial mass at 50 uM incubated for 24 hrs by mito-tracker green dye based flow cytometry; format: functional; design: scale not given: the % may be the effect or the level left
SH-SY5Y [18] = assay: Effect on cell death pathway in human SH-SY5Y cells assessed as decrease in early apoptotic cells at 10 uM incubated for 24 hrs by Annexin V-FITC/PI staining based microscopy; format: functional
SH-SY5Y [19] = assay: Effect on cell death pathway in human SH-SY5Y cells assessed as decrease in late apoptotic cells at 10 uM incubated for 24 hrs by Annexin V-FITC/PI staining based microscopy; format: functional
SH-SY5Y [20] = assay: Effect on cell death pathway in human SH-SY5Y cells assessed as decrease in necrotic cells at 10 uM incubated for 24 hrs by Annexin V-FITC/PI staining based microscopy; format: functional
SH-SY5Y [21] = assay: Effect on cell death pathway in human SH-SY5Y cells assessed as decrease in early apoptotic cells at 50 uM incubated for 24 hrs by Annexin V-FITC/PI staining based microscopy; format: functional
SH-SY5Y [22] = assay: Effect on cell death pathway in human SH-SY5Y cells assessed as decrease in late apoptotic cells at 50 uM incubated for 24 hrs by Annexin V-FITC/PI staining based microscopy; format: functional
SH-SY5Y [23] = assay: Effect on cell death pathway in human SH-SY5Y cells assessed as decrease in necrotic cells at 50 uM incubated for 24 hrs by Annexin V-FITC/PI staining based microscopy; format: functional
SH-SY5Y [24] = assay: Neuroprotective activity against tBHP-induced human SH-SY5Y cells assessed as increase in cell viability at 10 uM preincubated for 30 mins followed by t-BHP addition at 15 uM and measured after 24 hrs by neutral dye uptake assay relative to control; format: functional; details: time 24.5 hrs
SH-SY5Y [25] = assay: Neuroprotective activity against tBHP-induced human SH-SY5Y cells assessed as increase in cell viability at 50 uM preincubated for 30 mins followed by t-BHP addition at 15 uM and measured after 24 hrs by neutral dye uptake assay relative to control; format: functional; details: time 24.5 hrs
SH-SY5Y [26] = assay: Neuroprotective activity against tBHP-induced human SH-SY5Y cells assessed as increase in cell viability at 50 uM preincubated for 30 mins followed by t-BHP addition at 30 uM and measured after 24 hrs by neutral dye uptake assay relative to control; format: functional; details: time 24.5 hrs
SH-SY5Y [27] = assay: Neuroprotective activity against tBHP-induced human SH-SY5Y cells assessed as increase in cell viability at 10 uM preincubated for 30 mins followed by t-BHP addition and measured after 24 hrs by SRB assay; format: functional, cell-based; details: time 24.5 hrs
SH-SY5Y [28] = assay: Neuroprotective activity against tBHP-induced human SH-SY5Y cells assessed as increase in cell viability at 50 uM preincubated for 30 mins followed by t-BHP addition and measured after 24 hrs by SRB assay; format: functional, cell-based; details: time 24.5 hrs
SH-SY5Y [29] = assay: Neuroprotective activity against H2O2-induced human SH-SY5Y cells assessed as increase in cell viability at 10 uM preincubated for 30 mins followed by H2O2 addition and measured after 24 hrs by SRB assay; format: functional, cell-based; details: time 24.5 hrs
SH-SY5Y [30] = assay: Neuroprotective activity against H2O2-induced human SH-SY5Y cells assessed as increase in cell viability at 50 uM preincubated for 30 mins followed by H2O2 addition and measured after 24 hrs by SRB assay; format: functional, cell-based; details: time 24.5 hrs
SH-SY5Y [31] = assay: Antioxidant activity against human SH-SY5Y cells assessed as effect on intracellular ATP level at 50 uM incubated for 24 hrs followed by addition of oligomycin/FCCP/antimycin A /rotenone by Cell Mito stress assay based seahorse XF96 flux analyzer; format: functional

In the case of `CS(=O)(=O)[O-].O=C(/C=C/c1ccc(O)c(O)c1)NCCCCCCCCCC[n+]1ccc2ccccc2c1`, the viability at 24 h [1] is reported as no less than 85%, the viability at 24 h [2] is reported as no less than 85% and the Activity (SH-SY5Y [3]) is reported as “Non-Toxic”. The Activity (SH-SY5Y [4]) was “Non-Toxic”, the Activity (HepG2) was “Non-Toxic” and the pKa [5] was 8.45. The Drug uptake [6] was “Not Active”, the Drug uptake [7] was ~ 25% and the Drug uptake [8] was “Active”. The Activity (SH-SY5Y [9]) was “Active”, the Activity (SH-SY5Y [10]) was “Active” and the Activity (SH-SY5Y [11]) was “Active”. For the same compound, the Activity (SH-SY5Y [12]) was “Active”, the Activity (SH-SY5Y [13]) was “Active” and the Activity (SH-SY5Y [14]) was “Active”. The Activity (SH-SY5Y [15]) was “inactive”, the Activity (SH-SY5Y [16]) was 81.5% and the Activity (SH-SY5Y [17]) was 86.8%. The Activity (SH-SY5Y [18]) was “Active”, the Activity (SH-SY5Y [19]) was “Active” and the Activity (SH-SY5Y [20]) was “Active”. For the same compound, the Activity (SH-SY5Y [21]) was “Active”, the Activity (SH-SY5Y [22]) was “Active” and the Activity (SH-SY5Y [23]) was “Active”. The Activity (SH-SY5Y [24]) was 85.6%, the Activity (SH-SY5Y [25]) was 89.7% and the Activity (SH-SY5Y [26]) was 59.6%. For the same compound, the Activity (SH-SY5Y [27]) was “Active”, the Activity (SH-SY5Y [28]) was “Active” and the Activity (SH-SY5Y [29]) was “inactive”. For the same compound, the Activity (SH-SY5Y [30]) was “inactive” and the Activity (SH-SY5Y [31]) was 87.9%.
